In patent US20130184273A1, “BICYCLIC PYRIMIDINES” (Bayer Intellectual Property GmbH, priority 2010, published 2013):

Key:
[1] = target: T1, His-tagged human recombinant kinase full-length Akt2 (Homo sapiens, UniProt P31751); test: Akt2 kinase assay (TR-FRET); assay type: biochemical; settings: 10 μM ATP, 60 min at 22° C., read-out: Akt2, median IC50
T1 construct: His-tagged human recombinant kinase full-length Akt2; His; purchased Invitrogen PV 3975; host or cells: insect cells
Excerpt: Akt2 inhibitory activity of compounds of the present invention was quantified employing the Akt2 TR-FRET assay as described in the following paragraphs.
His-tagged human recombinant kinase full-length Akt2 expressed in insect cells and activated by PDK1 was purchased form Invitrogen (part number PV 3975). As substrate for the kinase reaction the biotinylated peptide biotin-Ahx-KKLNRTLSFAEPG (C-terminus in amide form) was used which can be purchased e.g. from the company Biosynthan GmbH (Berlin-Buch, Germany).
For the assay 50 nl of a 100 fold concentrated solution of the test compound in DMSO was pipetted into a black low volume 384well microtiter plate (Greiner Bio-One, Frickenhausen, Germany), 2 μl of a solution of Akt2 in assay buffer [50 mM TRIS/HCl pH 7.5, 5 mM MgCl2, 1 mM dithiothreitol, 0.02% (v/v) Triton X-100 (Sigma)] were added and the mixture was incubated for 15 min at 22° C. to allow pre-binding of the test compounds to the enzyme before the start of the kinase reaction. Then the kinase reaction was started by the addition of 3 μl of a solution of adenosine-tri-phosphate (ATP, 16.7 μM=>final conc. in the 5 μl assay volume is 10 μM) and substrate (1.67 μM=>final conc. in the 5 μl assay volume is 1 μM) in assay buffer and the resulting mixture was incubated for a reaction time of 60 min at 22° C. The concentration of Akt2 in the assay was adjusted depending of the activity of the enzyme lot and was chosen appropriate to have the assay in the linear range, typical enzyme concentrations were in the range of about 0.2 ng/μl (final conc. in the 5 μl assay volume).
The reaction was stopped by the addition of 5 μl of a solution of HTRF detection reagents (200 nM streptavidine-XL665 [Cisbio] and 1.5 nM anti-phosho-Serine antibody [Millipore, cat. #35-001] and 0.75 nM LANCE Eu-W 1024 labeled anti-mouse IgG antibody [Perkin Elmer]) in an aqueous EDTA-solution (100 mM EDTA, 0.1% (w/v) bovine serum albumin in 50 mM HEPES/NaOH pH 7.5).
The resulting mixture was incubated 1 h at 22° C. to allow the binding of the biotinylated phosphorylated peptide to the streptavidine-XL665 and the antibodies.
Subsequently the amount of phosphorylated substrate was evaluated by measurement of the resonance energy transfer from the anti-mouse-IgG-Eu-Chelate to the streptavidine-XL665. Therefore, the fluorescence emissions at 620 nm and 665 nm after excitation at 350 nm was measured in a TR-FRET reader, e.g. a Rubystar (BMG Labtechnologies, Offenburg, Germany) or a Viewlux (Perkin-Elmer). The ratio of the emissions at 665 nm and at […] was taken as the measure for the amount of phosphorylated substrate. The data were normalised (enzyme reaction without inhibitor=0% inhibition, all other assay components but no enzyme=100% inhibition).

[2] = test system: phospho-AKT at S473 in KPL4 breast tumour cell line; test: Cellular p-AKT1/2/3-S473 assay; assay type: cell-based; settings: KPL4 cells, treated with compounds for 2 hours; read-out: pAKT-S743 median IC50
Protocol: The molecular mechanism of action was investigated in a set of experiments to assess the inhibition of the PI3K-AKT-mTOR pathway in responsive cell lines such as KPL4 breast tumour cell line (PIK3CAH1047R, HER20/E and hormone independent). The phospho-substrates of PI3K-AKT-mTOR axis were used as the read-outs to reflect pathway inhibition. Cells were seeded at 60-80% confluency per well in 96-well cell culture plates. After overnight incubation at 37° C. 5% CO2, cells were treated with compounds and vehicle at 37° C. for 2 hours. Thereafter, cells were lysed in 150 μl lysis buffer and the levels of phospho-AKT at T308 and S473 and p-4E-BP1 at T70 sites were determined with the corresponding AlphaScreen® SureFire® assay kits (Perkin Elmer: 4E-BP1 Assay Kit Cat # TRG4E2S10K; Akt 1/2/3 p-Ser 473 #TGRA4S500 and Akt 1/2/3 p-Thr 308 #TGRA3S500 as well as IgG detection Kit #6760617M) as described in the manuals. All measurements where at least done in duplicates and confirmed by independent repetition.
Alternatively pAKT-S473 was measured using the “Akt Duplex” of the MULTI-SPOT® Assay System (Fa. Meso Scale Discovery, Cat#N41100B-1) following manufacturers instructions. Each assay used 20 μg of protein extract and measured total AKT and p-AKT content simultaneously in one well. All measurements where at least done in duplicates and confirmed by independent repetition. Values for P-AKT are expressed as percentage of P-AKT level compared to total-AKT content of the extracts.

[3] = test system: KPL-4 breast cancer cell line; test: Tumor cell proliferation assay (CellTiter-Glo); assay type: cell-based; settings: KPL4, 72 h drug exposure
Protocol: Compounds were tested in a cell-based assay that measures the capacity of the compounds to inhibit tumour cell proliferation following a 72 h drug exposure. Cell viability is determined using CellTiter-Glow® (CTG, Promega, cat #G7571/2/3). The CellTiter-Glo® Luminescent Cell Viability Assay is a homogeneous method to determine the number of viable cells in culture. Detection is based on using the luciferase reaction to measure the amount of ATP from viable cells. The amount of ATP in cells correlates with cell viability. Within minutes after a loss of membrane integrity, cells lose the ability to synthesize ATP, and endogenous ATPases destroy any remaining ATP; thus the levels of ATP fall precipitously.
Cells were plated at 3000-5000 cells/well (depending on the cell lines) in 90 μL growth medium on MTPs (Corning; #3603, black plate, clear flat bottom). For each cell line assayed, cells were plated onto a separate plate for determination of […] at t=0 hour and t=72 hour time points. Following overnight incubation at 37° C., chemiluminescence values for the t=0 samples were determined after adding 10 μl medium and 100 μl CTG solution according to manufacture protocol. Plates for the t=72 hour time points were treated with compounds diluted into growth medium at ten times final concentration added in 10 μL to the cell culture plate. Cells were then incubated for 72 hours at 37° C. Chemiluminescence values for the t=72 hour samples were determined. […] Experiments were controlled using a reference compound as standard.

T1 sequence (P31751 whole entry): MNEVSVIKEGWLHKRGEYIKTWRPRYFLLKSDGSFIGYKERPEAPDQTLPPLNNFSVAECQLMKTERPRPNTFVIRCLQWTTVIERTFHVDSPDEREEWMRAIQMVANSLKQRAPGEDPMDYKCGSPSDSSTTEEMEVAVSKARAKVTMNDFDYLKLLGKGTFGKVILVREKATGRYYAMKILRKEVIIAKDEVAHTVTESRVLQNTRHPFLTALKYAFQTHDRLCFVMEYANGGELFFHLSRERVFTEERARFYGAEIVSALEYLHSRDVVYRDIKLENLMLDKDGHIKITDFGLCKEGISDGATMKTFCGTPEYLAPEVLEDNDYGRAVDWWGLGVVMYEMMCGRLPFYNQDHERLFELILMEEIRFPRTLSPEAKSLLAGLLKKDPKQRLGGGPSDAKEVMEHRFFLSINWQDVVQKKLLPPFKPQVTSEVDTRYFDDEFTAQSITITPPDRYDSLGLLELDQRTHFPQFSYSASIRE

IC50 [1]: 629 nM
IC50 [2]: 540 nM
IC50 [3]: 2100 nM
Compound: NC1(c2ccc(-c3nc4ncc(-c5ccc(F)c(CO)c5)n4cc3-c3ccccc3)cc2)CCC1 [Example 6-1, (5-{7-[4-(1-Amino-cyclobutyl)-phenyl]-6-phenyl-imidazo[1,2-a]pyrimidin-3-yl}-2-fluoro-phenyl)-methanol]
